Measurements taken from US8022051B2, “Composition for protection and improvement of skin, or reinforcing skin barrier function comprising phosphatidylserine” (Doosan Corporation, priority 2004, dated 2011).

Assays:
[1] = test system: TPA-induced ear inflammation in CD-1 mouse; test: Alleviation of skin damage (inflammatory response) due to TPA in mouse ear; format: in vivo; settings: TPA 0.03%; applied 30 μl per cm^2 at 45 minutes and 4 hours after induction; phosphatidylserine 0.5%, clofibrate 1 mM, Wy14643 1 mM; FIG. 2
Description: In order to examine a skin damage (inflammatory response)-alleviating effect of the phosphatidylserine of the invention, which damage results from skin inflammation-inducing material, a following experiment was performed in accordance with a method used by Sheu et. al. (The Journal of Investigate Dermatology, 118, pp 94-101, 2002).
First, CD-1 mouse (male & female, 6-8 weeks, Charles River, US) was used as an experimental object. TPA (12-0-tetradecanoylphorbol-13-acetate) 0.03% (wt./vol.; in acetone) solution 10 μl, which was skin inflammation-inducing material, was treated to inner and outer parts of both ears of the experimental animal. The ear was thickened due to TPA and there occurred an inflammatory response. Then, clofibrate (1 mM) and Wy14643 (1 mM) as already-known positive control group, which are agonists of PPAR-a, and the 0.5% phosphatidylserine containing aqueous solution used as the Example 1 as an experimental material were applied to both ears in an amount of 30 μl per cm^2 at times of 45 minutes and 4 hours after the inflammation was induced. After that, the treated parts of the ears were subject to a biopsy, and the biopsy parts were fixed to 4% formaldehyde and then subject to Hematoxylene & Eosin (E&H) staining. The tissue slide stained with H&E was magnified to 100 folds to check the inflammation alleviation.

[2] = test system: skin keratinocyte cell line (HaCaT) and normal human keratinocytes; test: Reduction of inflammatory response induced by ultraviolet irradiation in skin keratinocytes (ELISA of TNF-a, IL-6, IL-1alpha); format: cell-based; settings: 25 mJ/cm^2 UVB; phosphatidylserine 20 and 40 μM, WY-14643 200 μM; 24 hours; FIG. 3
Description: In order to examine an inflammatory response-reducing effect of the phosphatidylserine of the invention in the skin keratinocyte, which response results from the ultraviolet irradiation, a following experiment was performed in accordance with a method disclosed in the literature (Stefan et. al., The Journal of Investigate Dermatology, 117, pp 1430-1436, 2001).
First, the skin keratinocyte cell line (HaCaT, a gift from Yonsei univeritym, Korea) was seeded to a 35 mm^2 of cell culture dish in an amount of 3×10^5 cells/dish and then cultured for a day. Next day, the culture medium was removed and the cell was washed with 1× phosphate-buffered saline (PBS), 700 μl of 1×PBS was added to each of the dishes, it was irradiated 25 mJ/cm^2 UVB and then PBS was removed. […] Next day, the culture medium was collected and then amounts of TNF-a and IL-6 which have been known as inflammatory cytokines were measured with an enzyme-linked immunosorbent assay (ELISA) method. In addition, in order to check that there occurred a similar inflammatory response reducing effect also in the normal human skin keratinocyte, an experiment was performed in the above-mentioned manner using normal human keratinocytes (a gift from Dong-guk University) instead of the HaCaT cell line and then an amount of IL-1alpha secreted to the culture medium was measured with the ELISA.

[3] = test system: skin of back region of CD-1 mouse; test: Skin differentiation promotion in the mouse (involucrin and loricrin expression); format: in vivo; settings: 0.5% aqueous solution, 50 μl two times per day for two weeks; compared to negative control group; FIG. 6
Description: In order to examine a differentiation promotion of the skin in a mouse model, a following experiment was performed.
First, 0.5% phosphatidylserine aqueous solution was applied to the skin of a back region of the mouse (CD-1 mouse, male&female, 6-8 weeks, Charles River, USA) in an amount of 50 μl two times per a day for two weeks. After that, the skin tissue of the treated region was subject to the biopsy and then the biopsy tissue was fixed to 4% formaldehyde and sliced. Then, antibodies for involucrin and loricrin were attached and an expression amount of the protein was examined.

PPAR-a = target: T1, PPAR-a (Homo sapiens, UniProt Q07869); test: PPAR-a activation in HeLa cell line (PPRE-luciferase reporter); format: cell-based; settings: 20 and 40 μM, eight hours; FIG. 7
T1 construct: expressed in transfected cells; host or cells: HeLa (KCLB No. 10002)
T1 sequence (Q07869 1-468): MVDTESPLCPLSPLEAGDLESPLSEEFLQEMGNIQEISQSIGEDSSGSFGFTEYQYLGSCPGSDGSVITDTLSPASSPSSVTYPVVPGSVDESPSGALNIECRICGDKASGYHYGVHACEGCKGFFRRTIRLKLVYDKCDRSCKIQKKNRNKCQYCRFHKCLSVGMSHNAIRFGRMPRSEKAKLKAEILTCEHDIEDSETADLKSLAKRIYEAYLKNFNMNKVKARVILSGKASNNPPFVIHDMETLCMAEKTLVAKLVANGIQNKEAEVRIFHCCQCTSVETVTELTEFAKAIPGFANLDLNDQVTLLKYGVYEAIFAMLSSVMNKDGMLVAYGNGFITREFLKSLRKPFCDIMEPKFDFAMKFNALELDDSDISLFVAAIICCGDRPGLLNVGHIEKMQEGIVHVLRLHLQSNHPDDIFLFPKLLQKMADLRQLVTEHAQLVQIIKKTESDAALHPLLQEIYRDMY
Description: In order to examine a PPAR-a activating effect of the phosphatidylserine of the invention, a following experiment was performed. At this time, it was examined activities for the PPAR-a and PPAR-γ retained.
First, a HeLa (Human epithelial carcinoma) (KCLB [Korean Cell Line Bank] No. 10002, Korea) was seeded to a 24-well plate in an amount of 2×10^4 cells/well and then cultured for a day. Next day, in order to perform a cell transfection, 200 ng of PPAR-a over-expression vector, 200 ng of PPRE (peculiar to PPAR-a)-luciferase reporter vector (Promega, USA), and 40 ng of renilla luciferase vector used as the control group in the cell (internal control, i.e., used to examine an transfection efficiency) were mixed in the OMEM (Gibco, USA) culture medium and subject to the transfection to the cell using the lipofectamin (Invitrogen, USA). After four hours, the culture medium was added to be 10% FBS and then cultured for one night. Next day, in order to measure an activity of PPAR-a, it was treated with 20 and 40 μM of phosphatidylserine and 400 μM of the clofibrate as the positive control group and then cultured for eight hours. An activity of the luciferase was measured with a luminometer using a dual luciferase assay system (Promega, USA). Also in case of PPAR-γ, the same process was performed to measure the activity. […]

## phosphatidylserine
[1]
  inflammation alleviation (H&E stained ear tissue): inflammation was alleviated
[2]
  inflammatory response increased due to the ultraviolet irradiation (TNF-a, IL-6, IL-1alpha amounts): considerably alleviated
[3]
  expression amounts of involucrin and loricrin in skin: remarkably increased
PPAR-a
  activity of PPAR-a (luciferase): activated
